Experiments:
[1] = biological target: T1, NDH-2B (Staphylococcus aureus, UniProt Q2FZW0); test: steady-state NADPH:DMN oxidoreductase inhibition (Ki app); also tryptophan fluorescence quenching titration; type: biochemical
T1 construct: gene SAOUHSC_00875
T1 sequence (Q2FZW0 1-354): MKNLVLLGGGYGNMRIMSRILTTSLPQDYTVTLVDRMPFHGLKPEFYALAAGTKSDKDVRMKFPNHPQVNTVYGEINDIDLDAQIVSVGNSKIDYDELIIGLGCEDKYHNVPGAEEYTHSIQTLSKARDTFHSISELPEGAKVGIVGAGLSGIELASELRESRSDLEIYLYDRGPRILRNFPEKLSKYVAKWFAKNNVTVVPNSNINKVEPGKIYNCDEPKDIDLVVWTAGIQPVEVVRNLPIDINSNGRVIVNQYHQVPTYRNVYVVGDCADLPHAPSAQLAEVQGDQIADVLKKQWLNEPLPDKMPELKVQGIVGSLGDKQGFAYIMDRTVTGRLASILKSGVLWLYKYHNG

[2] = biological target: T1, NDH-2B; test: tryptophan fluorescence quenching titration and STD-NMR; type: binding
[3] = biological target: T1, NDH-2B; test: co-purified flavin identified by HPLC and UV-visible spectrum; type: binding
[4] = biological target: T1, NDH-2B; test: NADH:DMN oxidoreductase specific activity of purified enzyme; type: biochemical
[5] = biological target: T2, NDH-2A (Staphylococcus aureus, UniProt Q2FZV7); test: NADH:DMN oxidoreductase specific activity of purified enzyme, pH […]; type: biochemical
T2 construct: gene SAOUHSC_00878
T2 sequence (Q2FZV7 whole entry): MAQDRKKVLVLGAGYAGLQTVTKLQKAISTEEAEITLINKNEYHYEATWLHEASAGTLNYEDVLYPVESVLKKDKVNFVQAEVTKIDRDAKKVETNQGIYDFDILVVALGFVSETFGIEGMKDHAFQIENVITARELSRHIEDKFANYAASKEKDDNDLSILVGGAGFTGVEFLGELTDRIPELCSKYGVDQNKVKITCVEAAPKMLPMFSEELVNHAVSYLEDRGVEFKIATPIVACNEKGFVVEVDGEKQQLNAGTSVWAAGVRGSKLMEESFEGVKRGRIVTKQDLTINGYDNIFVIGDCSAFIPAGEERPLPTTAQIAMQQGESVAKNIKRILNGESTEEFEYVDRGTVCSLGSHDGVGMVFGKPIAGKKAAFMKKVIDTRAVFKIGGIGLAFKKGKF

[6] = biological target: T1, NDH-2B; test: tryptophan fluorescence quenching titration; type: binding
[7] = biological target: T1, NDH-2B; test: tryptophan fluorescence quenching titration and STD-NMR; KM […] in steady-state kinetics; type: binding
[8] = substrate: NC(=O)C1=CN([C@@H]2O[C@H](COP(=O)(O)OP(=O)(O)OC[C@H]3O[C@@H](n4cnc5c(N)ncnc54)[C@H](OP(=O)(O)O)[C@@H]3O)[C@@H](O)[C@H]2O)C=CC1; test: purified protein; type: biochemical, Staphylococcus aureus; conditions: FAD binding site different from that of the quinone; pH 7.0

With CCCCCCCc1cc(O)c2ccccc2[n+]1[O-] [HQNO, 2-n-heptyl-4-hydroxyquinoline-N-oxide] the Ki [1] was 6.4 ± 1.25 µM.

In the case of NC(=O)c1ccc[n+]([C@@H]2O[C@H](COP(=O)(O)OP(=O)(O)OC[C@H]3O[C@@H](n4cnc5c(N)ncnc54)[C@H](OP(=O)(O)O)[C@@H]3O)[C@@H](O)[C@H]2O)c1 [NADP^+], the Kd [2] is reported as 182 ± 29 µM.

For Cc1cc2nc3c(=O)[nH]c(=O)nc-3n(C[C@H](O)[C@H](O)[C@H](O)COP(=O)(O)OP(=O)(O)OC[C@H]3O[C@@H](n4cnc5c(N)ncnc54)[C@H](O)[C@@H]3O)c2cc1C [FAD, flavin adenine dinucleotide], the “co-purified flavin identified by HPLC and UV-visible spectrum” value [3] was “Subsequent HPLC analysis confirmed the flavin as flavin adenine dinucleotide (FAD)”.

In the case of NC(=O)C1=CN([C@@H]2O[C@H](COP(=O)(O)OP(=O)(O)OC[C@H]3O[C@@H](n4cnc5c(N)ncnc54)[C@H](O)[C@@H]3O)[C@@H](O)[C@H]2O)C=CC1 [NADH], the NDH-2B [4] is reported as 34.03 ± 0.86 µmol/min/mg and the NDH-2A [5] is reported as 122.10 ± 18.30 µmol/min/mg.

With NC(=O)c1ccc[n+]([C@@H]2O[C@H](COP(=O)([O-])OP(=O)(O)OC[C@H]3O[C@@H](n4cnc5c(N)ncnc54)[C@H](O)[C@@H]3O)[C@@H](O)[C@H]2O)c1 [NAD^+] the Kd [6] was 170 ± 7.6 µM.

CC1=C(C)C(=O)c2ccccc2C1=O [DMN, 2,3-dimethyl-1,4-naphthoquinone] was tested, and the Kd [7] was 160 ± 35 µM.

B1: NDH-2B (Staphylococcus aureus subsp. aureus NCTC 8325) (protein)
chain: MKNLVLLGGGYGNMRIMSRILTTSLPQDYTVTLVDRMPFHGLKPEFYALAAGTKSDKDVRMKFPNHPQVNTVYGEINDIDLDAQIVSVGNSKIDYDELIIGLGCEDKYHNVPGAEEYTHSIQTLSKARDTFHSISELPEGAKVGIVGAGLSGIELASELRESRSDLEIYLYDRGPRILRNFPEKLSKYVAKWFAKNNVTVVPNSNINKVEPGKIYNCDEPKDIDLVVWTAGIQPVEVVRNLPIDINSNGRVIVNQYHQVPTYRNVYVVGDCADLPHAPSAQLAEVQGDQIADVLKKQWLNEPLPDKMPELKVQGIVGSLGDKQGFAYIMDRTVTGRLASILKSGVLWLYKYHNG
Work on B1 yielded a Km [8] of 80.4 ± 7.7 µM.

From publication PMC11302666, “The two alternative NADH:quinone oxidoreductases from Staphylococcus aureus: two players with different molecular and cellular roles” (Microbiology Spectrum, 2024)
